How the values were obtained:
Format in all cases: cell-based
TNFα = TNFα production from purified human monocytes; parameters: key to EFFECT on TNFα: NE: No effect; INHIB: Inhibition; STIM: Stimulation; IC40: 40% Inhibitory Concentration; EC50: 50% Effective Concentration; TC: Tolerated Concentration; IA: Interferes with Assay
Experimental: (§1) This assay determines the effect of test compounds on the production of TNFα from purified human monocytes. Compounds are tested for their ability to downregulate the production of TNFα in activated monocytes, or upregulate secretion of TNFα in unstimulated monocytes. Test compounds are incubated for sixteen hours with purified human monocytes at four dilutions over a range of three log10 concentrations. Where appropriate, lipopolysaccharide (LPS) is used to stimulate the monocytes.
(§2) The level of TNFα in the resultant supernatants is quantitated in a solid phase Enzyme-linked Immunoassay (EIA) performed in a 96 well format. TNFα present in the samples is captured by a specific monoclonal antibody immobilized on the well, and detected with an anti-TNFα polyclonal antibody conjugated to horse radish peroxidase, followed by an appropriate substrate. The levels of TNFα are determined by interpolation of the resultant color change in the substrate from a standard curve. All supernatants are tested in duplicate with controls and standards.
as §1, with “production of TNF from purified” for “production of TNFα from purified”, “incubated for sixteeen hours with” for “incubated for sixteen hours with”

IL-1β = IL-1β secretion from purified human monocytes; parameters: key to EFFECT on IL1β: NE: No effect; INHIB: Inhibition; STIM: Stimulation; IC40: 40% Inhibitory Concentration; EC50: 50% Effective Concentration; TC: Tolerated Concentration; IA: Interferes with Assay
Experimental: This assay determines the effect of test compounds on the secretion of IL-1β from purified human monocytes.
as §1, with “Compounds” for “This assay determines the effect of test compounds on the production of TNFα from purified human monocytes. Compounds”, “IL-1β” for “TNFα”
as §2, with “IL-1β” for “TNFα”, “probed” for “detected”, “anti-IL-1β” for “anti-TNFα”, “horseradish” for “horse radish”
This assay determines the effect of test compounds on the secretion of IL-1β from purified human monocytes. Compounds are tested for their ability to downregulate the production of IL-1β in activated monocytes, or upregulate secretion of IL-1β in unstimulated monocytes. Test compounds are incubated for sixteen hours with purified human monocytes at four dilutions over a range of three log10 concentrations. Where appropriate, lipopolysaccharide (LPS) is used to stimulate the monocytes.

IL-6 = IL-6 secretion from purified human monocytes; parameters: key: NE: No effect; INHIB: Inhibition; STIM: Stimulation; IC40: 40% Inhibitory Concentration; EC50: 50% Effective Concentration; TC: Tolerated Concentration; IA: Interferes with Assay
Experimental: This assay determines the effect of test compounds on the secretion of IL-6 from purified human monocytes. Compounds are tested for their ability to downregulate the production of IL-6 in activated monocytes, or upregulate secretion of IL-6 in unstimulated monocytes. Test compounds are incubated for sixteen hours with purified human monocytes at four dilutions over a range of three log10 concentrations. Where appropriate, lipopolysaccharide (LPS) is used to stimulate the monocytes.
as §2, with “IL-6” for “TNFα”, “probed” for “detected”, “anti-IL-6” for “anti-TNFα”, “horseradish” for “horse radish”

[1] = test system: adhesion of purified human monocytes to human umbilical vein endothelial cell (HUVEC) cultures; assay: Adhesion of purified human monocytes to HUVEC cultures; parameters: key: NE: No effect; INHIB: Inhibition; STIM: Stimulation; IC40: 40% Inhibitory Concentration; EC50: 50% Effective Concentration; TC: Tolerated Concentration; IA: Interferes with Assay; details: STIMULATED
Experimental: This assays measures the ability of test compounds to modulate adhesion of purified human monocytes to human umbilical vein endothelial cell (HUVEC) cultures. HUVECs are cultured to confluence in 96-well plates. Purified human monocytes are labelled with fluorescent dye. Triplicate cultures of HUVECs and monocytes are treated with four dilutions of test compound over a range of three log10 concentrations, in addition to stimulated and unstimulated controls. One hour after treatment, TNFα is added to HUVEC cultures to stimulate production of adhesion molecules. After a twelve hour incubation, the treated monocytes are added to their corresponding HUVEC cultures and incubated for ten minutes. The stimulation index (S.I.) is determined by comparing the fluorescence of treated cultures to untreated controls using a fluorometric readout in a 96-well format.

CCCCCCCCCCCCCC/C=C\CC[C@@H]1OC(=O)C(O)=C1O [(S)-3,4-Dihydroxy-5-[(Z)-3-octadecenyl]-2(5H)-furanone]
EC50 (TNFα; Homo sapiens, Monocyte, STIMULATED, STIM): 38 µM
EFFECT on TNFα (TNFα; STIMULATED): STIM
EFFECT on TNFα (TNFα; UNSTIMULATED): NE
IC40 (IL-1β; Homo sapiens, Monocyte, 16 h, STIMULATED, INHIB, 40% Inhibitory Concentration, read-out: IC40, IL1β): 50 µM
EFFECT on IL1β (IL-1β; STIMULATED): INHIB
EFFECT on IL1β (IL-1β; UNSTIMULATED): NE
EFFECT on IL6 (IL-6; STIMULATED): NE
EFFECT on IL6 (IL-6; UNSTIMULATED): NE
EFFECT on ADHESION [1]: NE

From patent US5656662A, “Synthesis of optically pure 4-alkenyl- or 4-alkanyl-2-hydroxytetronic acids” (The Ohio State University Research Foundation, priority 1995, dated 1997)
